What was measured:
[1] = DRUGMATRIX: Glutamate, Kainate radioligand binding (ligand: [3H] Kainic acid); type: cell membranes, Rattus norvegicus, Wistar, Brain, Membrane; conditions: Not Active = under 50% inhibition at 10 µM
[2] = molecular target: Mu-type opioid receptor (Homo sapiens, UniProt P35372); assay: DRUGMATRIX: Opiate mu (OP3, MOP) radioligand binding (ligand: [3H] Diprenorphine); type: cell membranes, CHO-K1, Membrane; conditions: cho-k1; Not Active = under 50% inhibition at 10 µM
[3] = molecular target: D(3) dopamine receptor (Homo sapiens, UniProt P35462); assay: DRUGMATRIX: Dopamine D3 radioligand binding (ligand: [3H] Spiperone); type: cell membranes, CHO, Membrane; conditions: cho
D(3) dopamine receptor, sequence (P35462 whole entry): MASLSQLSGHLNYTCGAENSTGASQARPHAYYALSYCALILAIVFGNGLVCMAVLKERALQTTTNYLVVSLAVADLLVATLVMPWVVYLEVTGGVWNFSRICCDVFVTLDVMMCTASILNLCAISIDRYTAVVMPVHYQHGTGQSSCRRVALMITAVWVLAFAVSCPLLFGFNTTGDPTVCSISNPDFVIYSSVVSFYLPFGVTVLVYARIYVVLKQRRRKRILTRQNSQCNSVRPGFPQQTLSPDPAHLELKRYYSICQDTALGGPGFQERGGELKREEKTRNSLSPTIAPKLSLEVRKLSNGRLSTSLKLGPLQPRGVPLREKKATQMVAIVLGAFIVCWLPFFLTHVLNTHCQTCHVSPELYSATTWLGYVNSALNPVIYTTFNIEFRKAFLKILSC

[4] = DRUGMATRIX: Phosphodiesterase PDE3 enzyme inhibition (substrate: [3H]cAMP + cAMP); type: tissue-based, Homo sapiens; conditions: platelet; Not Active = under 50% inhibition at 10 µM
[5] = molecular target: Cytochrome P450 2C9 (Homo sapiens, UniProt P11712); conditions: bti-tn-5b1-4; further: in other assays of this panel Not Active means under 50% inhibition at 10 µM
Cytochrome P450 2C9, sequence (P11712 whole entry): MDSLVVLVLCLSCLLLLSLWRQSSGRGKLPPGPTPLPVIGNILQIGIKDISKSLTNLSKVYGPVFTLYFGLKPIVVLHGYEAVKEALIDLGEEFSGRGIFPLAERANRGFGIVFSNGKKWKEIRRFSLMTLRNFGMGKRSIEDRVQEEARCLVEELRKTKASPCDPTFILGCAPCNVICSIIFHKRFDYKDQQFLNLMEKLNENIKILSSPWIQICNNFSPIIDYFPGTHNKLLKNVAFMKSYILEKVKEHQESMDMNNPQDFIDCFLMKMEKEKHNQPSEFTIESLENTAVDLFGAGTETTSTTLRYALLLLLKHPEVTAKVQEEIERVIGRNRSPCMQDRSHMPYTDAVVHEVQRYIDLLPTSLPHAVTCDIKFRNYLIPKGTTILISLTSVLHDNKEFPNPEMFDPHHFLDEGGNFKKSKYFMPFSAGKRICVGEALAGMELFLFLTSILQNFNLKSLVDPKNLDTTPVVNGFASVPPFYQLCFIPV

[6] = molecular target: T1, Receptor-type tyrosine-protein phosphatase C (Homo sapiens, UniProt P08575); parameters: species or system Escherichia coli;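 further: inhibition of CD45 enzyme activity measured using DiFMUP as substrate; in other assays of this panel Not Active means under 50% inhibition at 10 µM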
T1 sequence (P08575 whole entry): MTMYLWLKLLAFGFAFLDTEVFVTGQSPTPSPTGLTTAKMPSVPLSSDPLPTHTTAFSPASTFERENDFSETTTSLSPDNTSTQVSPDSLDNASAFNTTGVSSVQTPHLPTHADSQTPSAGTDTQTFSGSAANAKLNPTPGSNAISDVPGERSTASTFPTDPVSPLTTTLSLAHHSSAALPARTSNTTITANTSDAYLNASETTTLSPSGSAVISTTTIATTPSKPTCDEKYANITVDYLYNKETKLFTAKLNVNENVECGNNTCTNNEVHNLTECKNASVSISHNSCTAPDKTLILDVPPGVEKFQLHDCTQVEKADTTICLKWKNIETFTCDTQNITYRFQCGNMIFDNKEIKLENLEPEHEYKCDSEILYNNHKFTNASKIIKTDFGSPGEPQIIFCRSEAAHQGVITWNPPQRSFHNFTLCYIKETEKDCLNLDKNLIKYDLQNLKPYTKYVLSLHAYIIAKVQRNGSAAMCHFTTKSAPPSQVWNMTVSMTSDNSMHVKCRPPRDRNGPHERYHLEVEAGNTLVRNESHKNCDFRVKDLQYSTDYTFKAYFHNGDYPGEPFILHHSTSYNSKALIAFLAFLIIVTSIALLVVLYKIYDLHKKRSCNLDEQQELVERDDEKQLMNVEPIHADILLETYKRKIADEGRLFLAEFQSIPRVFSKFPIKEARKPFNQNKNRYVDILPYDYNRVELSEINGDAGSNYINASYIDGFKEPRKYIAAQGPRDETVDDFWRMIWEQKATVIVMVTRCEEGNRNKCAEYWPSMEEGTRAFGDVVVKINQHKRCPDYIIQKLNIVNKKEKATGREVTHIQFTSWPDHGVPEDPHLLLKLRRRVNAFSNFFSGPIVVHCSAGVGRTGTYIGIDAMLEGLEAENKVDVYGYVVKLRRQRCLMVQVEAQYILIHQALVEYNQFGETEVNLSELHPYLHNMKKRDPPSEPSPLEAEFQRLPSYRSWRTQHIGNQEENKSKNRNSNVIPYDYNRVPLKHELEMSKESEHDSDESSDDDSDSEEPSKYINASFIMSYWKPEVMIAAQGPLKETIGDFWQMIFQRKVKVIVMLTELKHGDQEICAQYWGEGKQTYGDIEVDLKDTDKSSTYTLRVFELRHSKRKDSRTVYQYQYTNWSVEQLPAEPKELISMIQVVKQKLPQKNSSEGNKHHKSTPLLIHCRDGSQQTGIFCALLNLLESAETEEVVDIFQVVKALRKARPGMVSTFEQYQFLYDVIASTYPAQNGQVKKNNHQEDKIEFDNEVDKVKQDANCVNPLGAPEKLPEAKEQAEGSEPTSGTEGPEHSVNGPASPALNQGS

[7] = molecular target: T2, Interstitial collagenase (Homo sapiens, UniProt P03956); assay: biochemical; type: tissue-based, Rheumatoid synovial fibroblasts;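 further: MMP-1 enzyme inhibition assay using a peptide substrate; in other assays of this panel Not Active means under 50% inhibition at 10 µM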
T2 sequence (P03956 whole entry): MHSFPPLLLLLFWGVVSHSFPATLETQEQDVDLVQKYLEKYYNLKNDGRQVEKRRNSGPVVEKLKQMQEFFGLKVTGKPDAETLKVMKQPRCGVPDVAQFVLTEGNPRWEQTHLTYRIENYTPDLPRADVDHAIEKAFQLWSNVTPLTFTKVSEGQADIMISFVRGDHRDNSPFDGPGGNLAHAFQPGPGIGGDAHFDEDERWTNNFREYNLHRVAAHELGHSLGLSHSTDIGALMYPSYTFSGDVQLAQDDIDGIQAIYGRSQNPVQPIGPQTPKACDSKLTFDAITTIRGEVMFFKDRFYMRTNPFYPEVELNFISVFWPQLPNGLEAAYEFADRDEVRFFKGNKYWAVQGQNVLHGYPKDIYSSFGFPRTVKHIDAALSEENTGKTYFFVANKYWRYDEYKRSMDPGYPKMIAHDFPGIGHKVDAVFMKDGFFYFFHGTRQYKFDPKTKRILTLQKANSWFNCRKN

Mu-type opioid receptor, sequence (P35372 whole entry): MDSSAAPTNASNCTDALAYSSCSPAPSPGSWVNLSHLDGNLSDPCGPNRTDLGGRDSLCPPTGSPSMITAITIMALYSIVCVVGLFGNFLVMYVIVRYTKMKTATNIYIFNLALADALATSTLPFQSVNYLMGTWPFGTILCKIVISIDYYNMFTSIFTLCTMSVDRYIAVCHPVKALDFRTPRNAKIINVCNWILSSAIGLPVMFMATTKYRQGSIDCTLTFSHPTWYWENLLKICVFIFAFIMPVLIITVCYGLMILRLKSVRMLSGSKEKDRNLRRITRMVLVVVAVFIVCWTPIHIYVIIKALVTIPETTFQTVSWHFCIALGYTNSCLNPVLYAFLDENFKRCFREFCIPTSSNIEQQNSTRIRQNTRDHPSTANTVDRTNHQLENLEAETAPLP

COc1ccc(C2C(=O)c3ccccc3C2=O)cc1 [ANISINDIONE]
Not Active: IC50 [1] | Ki [1] | IC50 [2] | IC50 [3] | IC50 [4] | Ki [4] | IC50 [5] | Ki [5] | IC50 [6] | IC50 [7]

CC[C@H](C)[C@H]1O[C@]2(C=C[C@@H]1C)C[C@@H]1C[C@@H](C/C=C(\C)[C@@H](O[C@H]3C[C@H](OC)[C@@H](O[C@H]4C[C@H](OC)[C@@H](O)[C@H](C)O4)[C@H](C)O3)[C@@H](C)/C=C/C=C3\CO[C@@H]4[C@H](O)C(C)=C[C@@H](C(=O)O1)[C@]34O)O2.CO[C@H]1C[C@H](O[C@H]2[C@H](C)O[C@@H](O[C@@H]3/C(C)=C/C[C@@H]4C[C@@H](C[C@]5(C=C[C@H](C)[C@@H](C(C)C)O5)O4)OC(=O)[C@@H]4C=C(C)[C@@H](O)[C@H]5OC/C(=C\C=C\[C@@H]3C)[C@]54O)C[C@@H]2OC)O[C@@H](C)[C@@H]1O [ABAMECTIN]
Not Active: IC50 [1] | Ki [1] | IC50 [2] | IC50 [3] | IC50 [4] | Ki [4] | IC50 [5] | Ki [5] | IC50 [6] | IC50 [7]

CN/C(=N\CCSCc1nc[nH]c1C)NC#N [CIMETIDINE]
Not Active: IC50 [1] | Ki [1] | IC50 [2] | IC50 [3] | IC50 [4] | Ki [4] | IC50 [5] | Ki [5] | IC50 [6] | IC50 [7]

O=C(N/N=C/c1ccc([N+](=O)[O-])o1)c1cc([N+](=O)[O-])cc([N+](=O)[O-])c1O [NIFURSOL]
Not Active: IC50 [1] | Ki [1] | IC50 [2] | IC50 [3] | IC50 [4] | Ki [4] | IC50 [6] | IC50 [7]

CC(C)NCC(O)COc1cccc2[nH]ccc12 (stereo unspecified) [PINDOLOL]
Not Active: IC50 [1] | Ki [1] | IC50 [2] | IC50 [3] | IC50 [4] | Ki [4] | IC50 [6] | IC50 [7]

NCCCC(O)(P(=O)(O)O)P(=O)(O)O [ALENDRONIC ACID]
Not Active: IC50 [1] | Ki [1] | IC50 [2] | IC50 [3] | IC50 [4] | Ki [4] | IC50 [6] | IC50 [7]

COc1ccc2c3c1O[C@H]1C[C@@H](O)C=C[C@@]31CCN(C)C2 [GALANTAMINE]
Not Active: IC50 [1] | Ki [1] | IC50 [2] | IC50 [3] | IC50 [4] | Ki [4] | IC50 [6] | IC50 [7]

COC1=C(OC)C(=O)C(CCCCCCCCCCO)=C(C)C1=O [IDEBENONE]
Not Active: IC50 [1] | Ki [1] | IC50 [2] | IC50 [3] | IC50 [4] | Ki [4] | IC50 [6] | IC50 [7]

CC1(C)S[C@@H]2[C@H](NC(=O)[C@H](N)c3ccccc3)C(=O)N2[C@H]1C(=O)O [AMPICILLIN]
Not Active: IC50 [1] | Ki [1] | IC50 [2] | IC50 [3] | IC50 [4] | Ki [4] | IC50 [6] | IC50 [7]

Cn1c(=O)c2[nH]cnc2n(C)c1=O.Cn1c(=O)c2[nH]cnc2n(C)c1=O.NCCN [AMINOPHYLLINE]
Not Active: IC50 [1] | Ki [1] | IC50 [2] | IC50 [3] | IC50 [4] | Ki [4] | IC50 [6] | IC50 [7]

CC(C)=CCC/C(C)=C/CO [GERANIOL]
Not Active: IC50 [1] | Ki [1] | IC50 [2] | IC50 [3] | IC50 [4] | Ki [4] | IC50 [6] | IC50 [7]

CN1[C@@H]2CC[C@H]1C[C@@H](OC(=O)C(CO)c1ccccc1)C2 (stereo partly specified) [ATROPINE]
Not Active: IC50 [1] | Ki [1] | IC50 [2] | IC50 [3] | IC50 [4] | Ki [4] | IC50 [6] | IC50 [7]

CC(=O)Oc1ccc(C(c2ccc(OC(C)=O)cc2)c2ccccn2)cc1 [BISACODYL]
Not Active: IC50 [1] | Ki [1] | IC50 [2] | IC50 [3] | IC50 [4] | Ki [4] | IC50 [6] | IC50 [7]

C[C@@H]1C[C@H]2[C@@H]3CCC4=CC(=O)C=C[C@]4(C)[C@@]3(F)[C@@H](O)C[C@]2(C)[C@@]1(O)C(=O)CO [DEXAMETHASONE]
Not Active: IC50 [1] | Ki [1] | IC50 [2] | IC50 [3] | IC50 [4] | Ki [4] | IC50 [6] | IC50 [7]

CC(C)c1cccc(C(C)C)c1O [PROPOFOL]
Not Active: IC50 [1] | Ki [1] | IC50 [2] | IC50 [3] | IC50 [4] | Ki [4] | IC50 [6] | IC50 [7]

— ChEMBL document CHEMBL1909046, “DrugMatrix in vitro pharmacology data”
